Where “and” joins values, the source holds several entries; their conditions need not be identical. Equal values may be shown once.
Columns and labels:
human CB1 receptor [1] = molecular target: T1, human CB1 receptor (Homo sapiens, UniProt P21554); assay: Binding assay, cannabinoid CB1 receptor ([3H]-CP-55,940 displacement); parameters: expressed in transfected cells; host or cells: SK-N-MC cells, pcDNA3 CB-1 (human), semi-purified membranes; details: for inhibition at 1 µM: test concentration 1 μM (superscript b)
Outline: (§1)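 Displacement of 0.2 nM [3H]-CP-55,940 (non-specific: 10 uM WIN 55,212) was run on semi-purified membranes of transfected SK-N-MC cells carrying human CB-1 or CB-2, 90 min, 30° C, pH 7.5. Scintillation counting; IC50 by linear regression, else % inhibition at 0.2, 1 or 10 μM.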

human CB-2 receptor = molecular target: T2, human CB-2 receptor (Homo sapiens, UniProt P34972); assay: Binding assay, cannabinoid CB2 receptor ([3H]-CP-55,940 displacement); details: for inhibition at 1 µM: test concentration 1 μM (superscript b), read-out: CB2 binding percent inhibition
T2 construct: expressed in transfected cells; host or cells: SK-N-MC cells, pcDNA3 CB-2 (human), semi-purified membranes
Outline: as §1

human CB1 receptor [2] = molecular target: T1, human CB1 receptor; assay: Functional cell-based assay, CB1 receptor mediated change in CRE β-gal expression (adenylate cyclase activity); parameters: expressed in transfected cells; host or cells: SK-NC cells [sic], pcDNA3-CRE β-gal and pcDNA3 CB-1 (human); details: for inhibition at 1 µM: test concentration 1 μM, where an EC50 was not obtained, read-out: CB1 functional percent inhibition
Description: Functional Cell-Based Assay for CB1 or CB2 Agonist and Inverse Agonist Effects on Intra-Cellular Adenylate Cyclase Activity
The CB1 and CB2 receptors are G-protein coupled receptors (GPCR), which influence cell function via the Gi-protein. These receptors modulate the activity of intracellular adenylate cyclase, which in turn produces the intracellular signal messenger cyclic-AMP (cAMP).
At baseline, or during non-ligand bound conditions, these receptors are constitutively active and tonically suppress adenylate cyclase activity. The binding of an agonist causes further receptor activation and produces additional suppression of adenylate cyclase activity. The binding of an inverse agonist inhibits the constitutive activity of the receptors and results in an increase in adenylate cyclase activity.
By monitoring intracellular adenylate cyclase activity, the ability of compounds to act as agonists or inverse agonists can be determined.
Test compounds were evaluated in SK-NC cells which, using standard transfection procedures, were stably transfected with human cDNA for pcDNA3-CRE β-gal and pcDNA3 CB-1 (human) or pcDNA3 CB-2 (human). By expressing CRE β-gal, the cells produced β-galactosidase in response to CRE promoter activation by cAMP. Cells expressing CRE β-gal and either the human CB1 or CB2 receptor will produce less β-galactosidase when treated with a CB1/CB2 agonist and will produce more β-galactosidase when treated with a CB1/CB2 inverse agonist.
The cells were grown in 96-well plates under standard cell culture conditions at 37° C. in a 5% CO2 atmosphere. After 3 days, the media was removed and a test compound in media (wherein the media was supplemented with 2 mM L-glutamine, […] sodium pyruvate, 0.1% low fatty acid FBS (fetal bovine serum) and antibiotics) was added to the cell. The plates were incubated for 30 minutes at 37° C. and the plate cells were then treated with forskolin over a 4-6 hour period, then washed and lysed. The β-galactosidase activity was quantitated using commercially available kit reagents (Promega Corp. Madison, Wis.) and a Vmax Plate Reader (Molecular Devices, Inc).
For cells expressing CRE β-gal and the CB1 receptor, CB1 agonists reduced β-galactosidase activity in a dose-dependent manner and CB1 inverse agonists increased β-galactosidase activity in a dose-dependent manner.
The change in β-galactosidase activity was determined by setting a vehicle treated cell's activity value at 100% and expressing the β-galactosidase activity measured in a corresponding compound treated cell as a percent of the vehicle treated cell activity.
The EC50 and IC50 values for compounds tested were calculated by linear regression and were obtained from studies in which varying compound concentrations were used.
The EC50 values for compounds tested were calculated by linear regression and were obtained from studies in which varying compound concentrations were used. Where an EC50 was not obtained, test results are provided as percent inhibition at a test concentration of 1 μM. ^aTest value in IC50; indicates agonist activity.

[3] = read-out: CB1 binding percent inhibition

T2 sequence (P34972 whole entry): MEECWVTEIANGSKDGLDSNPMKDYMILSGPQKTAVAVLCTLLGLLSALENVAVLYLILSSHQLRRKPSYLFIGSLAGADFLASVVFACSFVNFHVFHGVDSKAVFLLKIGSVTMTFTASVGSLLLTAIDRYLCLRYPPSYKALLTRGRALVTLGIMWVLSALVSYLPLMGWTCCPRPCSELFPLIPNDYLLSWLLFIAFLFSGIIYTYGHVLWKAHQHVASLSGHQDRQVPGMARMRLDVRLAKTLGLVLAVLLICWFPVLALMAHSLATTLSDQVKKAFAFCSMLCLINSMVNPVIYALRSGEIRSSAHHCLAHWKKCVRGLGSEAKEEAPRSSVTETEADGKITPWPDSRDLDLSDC
T1 sequence (P21554 whole entry): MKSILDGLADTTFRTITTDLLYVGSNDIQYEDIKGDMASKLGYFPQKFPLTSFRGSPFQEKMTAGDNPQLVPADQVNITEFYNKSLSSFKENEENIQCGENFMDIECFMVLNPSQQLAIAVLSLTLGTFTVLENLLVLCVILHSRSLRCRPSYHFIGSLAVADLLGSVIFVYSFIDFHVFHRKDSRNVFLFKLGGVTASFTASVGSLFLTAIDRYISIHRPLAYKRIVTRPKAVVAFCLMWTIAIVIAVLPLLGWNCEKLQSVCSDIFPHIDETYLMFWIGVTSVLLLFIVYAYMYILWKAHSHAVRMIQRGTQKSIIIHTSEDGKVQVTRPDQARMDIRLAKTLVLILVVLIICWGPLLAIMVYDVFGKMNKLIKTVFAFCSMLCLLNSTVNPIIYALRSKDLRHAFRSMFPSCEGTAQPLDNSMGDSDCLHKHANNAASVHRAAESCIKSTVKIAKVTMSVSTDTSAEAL

CC12CCC(C1)C(C)(C)C2NC(=O)c1nn(Cc2ccccc2)c2c1CS(=O)(=O)CC2 (stereo not drawn) [Cpd 20, 1-benzyl-5,5-dioxo-4,5,6,7-tetrahydro-1H-5λ^6-thiopyrano[4,3-c]pyrazole-3-carboxylic acid (1,3,3-trimethyl-bicyclo[2.2.1]hept-2-yl)-amide]
IC50 (human CB1 receptor [1]): 22 nM | IC50 (human CB-2 receptor): 5 nM | IC50 (human CB1 receptor [2]): 60 nM

CC12CCC(C1)C(C)(C)C2NC(=O)c1nn(Cc2ccccc2)c2c1CSCC2 (stereo not drawn) [Cpd 19, 1-benzyl-1,4,6,7-tetrahydro-thiopyrano[4,3-c]pyrazole-3-carboxylic acid (1,3,3-trimethyl-bicyclo[2.2.1]hept-2-yl)-amide]
IC50 (human CB1 receptor [1]): 5 nM | IC50 (human CB-2 receptor): 0.7 nM | IC50 (human CB1 receptor [2]): 30 nM

CC12CCC(C1)C(C)(C)C2NC(=O)c1nn(Cc2ccccc2)c2c1C[S+]([O-])CC2 (stereo not drawn) [Cpd 21, 1-benzyl-5-oxo-4,5,6,7-tetrahydro-1H-5λ^4-thiopyrano[4,3-c]pyrazole-3-carboxylic acid (1,3,3-trimethyl-bicyclo[2.2.1]hept-2-yl)-amide]
inhibition at 1 µM (human CB1 receptor [1]; [3]): 53% | IC50 (human CB-2 receptor): 56 nM | IC50 (human CB1 receptor [2]): 6300 nM

C[C@@H](NC(=O)c1nn(Cc2ccccc2)c2c1CSCC2)c1ccccc1 [Cpd 1, 1-benzyl-1,4,6,7-tetrahydro-thiopyrano[4,3-c]pyrazole-3-carboxylic acid [(1R)-1-phenyl-ethyl]-amide]
IC50 (human CB1 receptor [1]): 160 nM | IC50 (human CB-2 receptor): 62 nM | IC50 (human CB1 receptor [2]): 70 nM

CC(NS(=O)(=O)/C=C/c1nn(Cc2ccccc2)c2c1C[S+]([O-])CC2)C1CCCCC1 (stereo not drawn) [Cpd 25, (E)-2-(1-benzyl-5-oxo-4,5,6,7-tetrahydro-1H-5λ^4-thiopyrano[4,3-c]pyrazol-3-yl)-ethenesulfonic acid (1-cyclohexyl-ethyl)amide]
CB1 binding percent inhibition (human CB1 receptor [1]; test concentration 10 μM (superscript c), 10 µM): 0% and 6% | inhibition at 1 µM (human CB1 receptor [2]): 1%

C[C@@H](NC(=O)c1nn(Cc2ccccc2)c2c1CS(=O)(=O)CC2)c1ccccc1 [Cpd 13, 1-benzyl-5,5-dioxo-4,5,6,7-tetrahydro-1H-5λ^6-thiopyrano[4,3-c]pyrazole-3-carboxylic acid [(1R)-1-phenyl-ethyl]-amide]
inhibition at 1 µM (human CB1 receptor [1]; [3]): 38% | inhibition at 1 µM (human CB-2 receptor): 55% | EC50 (human CB1 receptor [2]): 7880 nM

C[C@@H](NC(=O)/C=C/c1nn(Cc2ccccc2)c2c1CSCC2)c1ccccc1 [Cpd 33, (2E)-3-(1-benzyl-1,4,6,7-tetrahydro-thiopyrano[4,3-c]pyrazol-3-yl)-N-[(1R)-1-phenyl-ethyl]-acrylamide]
inhibition at 1 µM (human CB1 receptor [1]; [3]): 35% | inhibition at 10 µM (human CB1 receptor [1]; test concentration 10 μM (superscript c), read-out: CB1 binding percent inhibition): 9% | IC50 (human CB-2 receptor): 6800 nM | inhibition at 1 µM (human CB1 receptor [2]): 24%

C[C@H](NS(=O)(=O)/C=C/c1nn(Cc2ccccc2)c2c1CSCC2)c1ccccc1 [Cpd 3, (E)-2-(1-benzyl-1,4,6,7-tetrahydro-thiopyrano[4-3-c]pyrazol-3-yl)-ethenesulfonic acid [(1S)-1-phenyl-ethyl]-amide]
inhibition at 1 µM (human CB1 receptor [1]; [3]): 23% | inhibition at 1 µM (human CB-2 receptor): 74% | inhibition at 1 µM (human CB1 receptor [2]): 17%

— patent US7524964B2, “Tetrahydrothiopyrano pyrazole cannabinoid modulators” (Janssen Pharmaceutica NV, priority 2005, dated 2009)
